# Patent publication US20100099122A1 (priority 2008, published 2010)
# “Also recorded” adds a separate entry of the source. Read-outs that look alike come from different tables or passages of the source.
# Columns and labels:
# [1] = molecular target: H. capsulatum Ggt1 (Histoplasma ohiense, UniProt A0ACF1AEB1); format: biochemical
# [2] = test system: H. capsulatum Ggt1 (GSH-FeR); format: biochemical, Histoplasma capsulatum; details: inhibitor 0.1 mM, 15 min pretreatment, then removed by diafiltration, GSH-FeR activity
# [3] = test system: H. capsulatum Ggt1 (GSH-FeR); details: cited from earlier work
Compound,"Glu transfer catalyzed by γ-Glutamyltransferase (Ggt1), effect of inhibitor [1]","Fe^3+ reduction catalyzed by γ-Glutamyltransferase (Ggt1), effect of inhibitor [2]",also measured
"N[C@H](C(=O)O)[C@@H]1CC(Cl)=NO1 [Acivicin, acivicin]",completely abolished; also recorded: Inhibition,Inhibition,"Fe^3+ reduction catalyzed by γ-Glutamyltransferase (Ggt1), effect of inhibitor ([2]; listed as acivicin): completely abolished"
"[Al] [Aluminum, aluminum]",no inhibitory action; also recorded: No effect,strong inhibitory effect; also recorded: Inhibition,inhibition of GSH-FeR activity [3]: reversibly inhibited
"[N-]=[N+]=CC(=O)CC[C@H](N)C(=O)O [DON, 6-diazo-5-oxo-L-norleucine]",completely abolished; also recorded: Inhibition,completely abolished; also recorded: Inhibition,–
"N[C@@H](CCC(=O)Nc1ccc([N+](=O)[O-])cc1)C(=O)O [GpNA, γ-glutamyl-p-nitroanilide]",–,–,"Km ([1]; read-out: apparent optimal Km for GpNA, glutamyl transfer reaction): ~840 µM; Km ([1]; read-out: apparent optimal Km for GpNA, hydrolysis): ~750 µM"
N[C@@H](CS)C(=O)NCC(=O)O [cysteinylglycine],–,–,ability to reduce iron compared to the activity of 1 mM GSH (1 mM): over 117 fold; iron reduction activity (ferrous iron generated) (0.5-1 mM): generated measurable amounts of ferrous iron; iron reduction by cysteinylglycine alone (pH 5.5): 2.85±0.08 μmol of Fe^2+ min^−1 (mmol CysGly)^−1
[Ga] [gallium],no inhibitory action; also recorded: No effect,strong inhibitory effect; also recorded: Inhibition,inhibition of GSH-FeR activity [3]: reversibly inhibited
serine/borate complex [SBC],completely abolished; also recorded: Inhibition,completely abolished; also recorded: Inhibition,–
